Patent publication US20220211694A1, “QUINOLINE DERIVATIVES FOR TREATMENT OF HEAD AND NECK CANCER” (CHIA TAI TIANQING PHARMACEUTICAL GROUP CO., LTD., priority 2019, published 2022)
Counter-ions that a name gives are not always drawn.

Legend:
[1] = system: human laryngeal squamous cell carcinoma Hep-2 cell line; assay: MTT cell growth inhibition, Hep-2 cell line; format: cell-based; details: MTT method, in vitro
Procedure: (§1) The test drugs were dissolved in dimethyl sulfoxide to prepare a 100 mmol/L stock solution, which was stored at −20° C. for later use. When in use, the stock solution was diluted with a DMEM serum culture medium to a desired concentration.
(§2) The human laryngeal squamous cell carcinoma Hep-2 cell line and the human laryngeal carcinoma TU212 cell line were separately cultured in a DMEM complete culture medium containing 10% fetal bovine serum and 0.1 g/L streptomycin and penicillin (the final concentration is 100 U·mL^−1), and the mixtures were incubated in an incubator at 37° C./5% CO2. When the cell fusion reached about 85%, the cells were mixed and digested using 0.02% EDTA and 0.25% trypsin, and then the cells were collected, centrifuged at 1000 r/min, and subcultured.
(§3) The IC50 value can be measured by a conventional method in the art (e.g., conventional MTT method), or can be measured by the following method (MTT method). […]
(§4) Half maximal inhibitory concentration IC50 was calculated according to inhibition rates at all concentrations using GraphPad Prism 5 software.

[2] = system: human laryngeal carcinoma TU212 cell line; assay: MTT cell growth inhibition, TU212 cell line; format: cell-based; details: MTT method, in vitro
Procedure: as §1, §2, §3, §4

[3] = system: human oral squamous cell carcinoma scc4 cell line; assay: MTT cell growth inhibition, scc4 cell line; format: cell-based; details: MTT method, in vitro
Procedure: as §1
(§5) The human oral squamous cell carcinoma scc4 cell line, the human oral squamous cell carcinoma CAL-27 cell line and the human oral squamous cell carcinoma HSC-4 cell line were separately cultured in a DMEM complete culture medium containing 10% fetal bovine serum and 0.1 g/L streptomycin and penicillin (the final concentration is 100 U·mL^−1), and the mixtures were incubated in an incubator at 37° C./5% CO2. When the cell confluence reached about 85%, the cells were mixed and digested using 0.02% EDTA and 0.25% trypsin, and then the cells were collected, centrifuged at 1000 r/min, and subcultured.
as §3, §4

[4] = system: human oral squamous cell carcinoma CAL-27 cell line; assay: MTT cell growth inhibition, CAL-27 cell line; format: cell-based; details: MTT method, in vitro
Procedure: as §1, §5, §3, §4

[5] = system: human oral squamous cell carcinoma HSC-4 cell line; assay: MTT cell growth inhibition, HSC-4 cell line; format: cell-based; details: MTT method, in vitro
Procedure: as §1, §5, §3, §4

[6] = system: head and neck adenocarcinoma; assay: Clinical study of anlotinib hydrochloride capsules in recurrent/metastatic head and neck adenocarcinomas; format: in vivo, human; details: patients with head and neck adenocarcinoma; 12 mg once daily orally, d1-14 of each 21-day cycle
head and neck cancer = assay: Clinical study of anlotinib with intensity modulated radiotherapy in previously untreated head and neck cancer; format: in vivo, human; details: patients with head and neck cancer; anlotinib 10 mg/day combined with radiotherapy
Procedure: Previously untreated patients with pathologically confirmed head and neck cancer, specifically including ones with nasopharyngeal carcinoma, tonsil cancer, floor of mouth cancer, oral cancer, laryngeal cancer and hypopharyngeal cancer, were all received intensity modulated radiotherapy after administration of anlotinib. The administration regimens are detailed below. Anlotinib: administered about one week before radiotherapy, 10 mg/day for a three-cycle treatment, consecutively two-week treatment and then one-week interruption, and whether the medicine was administered continuously was determined according to the change in tumors after radiotherapy. The efficacy evaluation observation indexes include 3-year overall survival (OS), […] (DFS), 3-year distant metastasis rate and local control rate. Patient, pathologically diagnosed with tonsil cancer, starting taking anlotinib hydrochloride capsules on Oct. 10, 2018 once daily, orally before breakfast at a dose of 10 mg each time, with consecutively two-week treatment and then one-week interruption; starting receiving radiation therapy on Oct. 15, 2018. Patient, pathologically diagnosed with nasopharyngeal carcinoma, starting taking anlotinib hydrochloride capsules on Nov. […]

Compound | effect on the proliferation of the human laryngeal squamous cell carcinoma cells [1] | effect on the proliferation of the human laryngeal carcinoma cells [2] | effect on the proliferation of the human oral squamous cell carcinoma cells [3] | effect on the proliferation of the human oral squamous cell carcinoma cells [4] | effect on the proliferation of the human oral squamous cell carcinoma cells [5] | clinical benefits [6] | clinical benefits (head and neck cancer)
COc1cc2c(Oc3ccc4[nH]c(C)cc4c3F)ccnc2cc1OCC1(N)CC1 [dihydrochloride of the compound I] | clear inhibitory effect | clear inhibitory effect | clear inhibitory effect | clear inhibitory effect | clear inhibitory effect |  | 
COc1cc2c(Oc3ccc4[nH]c(C)cc4c3F)ccnc2cc1OCC1(N)CC1 [anlotinib, 1-[[[4-(4-fluoro-2-methyl-1H-indol-5-yl)oxy-6-methoxyquinolin-7-yl]oxy]methyl]cyclopropylamine] |  |  |  |  |  | had clinical benefits | had clinical benefits
